Results reported in US11622946B2, “Uses of a carotenoid in the treatment or prevention of stress induced conditions” (GREENALTECH, S.L., priority 2016, dated 2023).
Like-named read-outs stand apart in the source and are kept apart here.

Assays:
[1] = molecular target: T1, human Gluocorticoid receptor (GR) (Homo sapiens, UniProt P04150); assay: GR antagonist assay (GeneBLAzer beta-lactamase reporter, GR-UAS-bla HEK 293T cells, dexamethasone as agonist); format: cell-based; conditions: for antagonist effect on GR (in words) / GR inhibition: against dexamethasone; for GR inhibition: at 10 μM
T1 construct: expressed in transfected cells; host or cells: GeneBLAzer UAS-bla HEK 293T
T1 sequence (P04150 524-758 limits assumed): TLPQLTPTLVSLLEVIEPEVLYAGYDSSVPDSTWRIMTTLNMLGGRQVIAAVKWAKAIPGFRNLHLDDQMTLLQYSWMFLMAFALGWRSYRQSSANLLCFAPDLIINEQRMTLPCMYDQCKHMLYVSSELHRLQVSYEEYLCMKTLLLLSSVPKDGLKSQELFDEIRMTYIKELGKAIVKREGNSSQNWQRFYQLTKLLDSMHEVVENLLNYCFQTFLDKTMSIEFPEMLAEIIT
Procedure: An antagonist assay for GR was performed.
These cells stably express a beta-lactamase reporter gene under the transcriptional control of an upstream activator sequence (UAS). When an agonist binds to the LBD of the GAL4 (DBD)-GR (LBD) fusion protein, the protein binds to the UAS, resulting in expression of beta-lactamase.
32 μL of cell suspension is added to the wells and pre-incubated at 37° C./5% CO2 in a humidified incubator with compounds and control antagonist titration for 30 minutes. 4 μL of 10× control agonist. Dexamethasone at the pre-determined EC80 concentration is added to wells containing the control antagonist or compounds. The plate is incubated for 16-24 hours at 37° C./5% CO2 in a humidified incubator. 8 μL of 1 μM Substrate Loading Solution is added to each well and the plate is incubated for 2 hours at room temperature. The plate is read on a fluorescence plate reader.

[2] = molecular target: T2, progesterone receptors (PR) (Homo sapiens, UniProt P06401); assay: PR antagonist assay (GeneBLAzer beta-lactamase reporter, UAS-bla HEK 293T cells, R5020 as agonist); format: cell-based; conditions: for antagonist action on PR (in words): against promegestone (R5020)
T2 sequence (P06401 679-933 limits assumed): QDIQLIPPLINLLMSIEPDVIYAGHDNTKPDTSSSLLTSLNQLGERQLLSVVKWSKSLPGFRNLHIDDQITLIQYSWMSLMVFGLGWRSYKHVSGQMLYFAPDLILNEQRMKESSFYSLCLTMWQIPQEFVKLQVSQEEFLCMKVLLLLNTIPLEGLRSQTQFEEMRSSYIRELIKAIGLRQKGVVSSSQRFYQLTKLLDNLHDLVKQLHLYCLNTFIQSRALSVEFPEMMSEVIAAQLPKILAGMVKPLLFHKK
Procedure: An antagonist assay for PR was performed. In this assay, an engineered cell line (UAS-bla HEK 293T) expressing PR is used to test the action of two xanthophylls. The detection method consists in GeneBLAzer® technology, based on mammalian-optimized Beta-lactamase reporter gene (bla) combined with a FRET-enabled substrate.
In FIG. 7, neoxanthin and fucoxanthin were tested against the agonist promegestone (R5020).

[3] = system: p53 in HaCat keratinocytes; assay: p53 quantification by ELISA after hydrocortisone (Human Total p53 DuoSet IC ELISA); format: cell-based; conditions: compounds at 0.1 and 1 μM, 1 h before 10 μM hydrocortisone, 2 h
Procedure: HaCat keratinocytes were cultured in DMEM medium supplemented with 10% FCS. […] Assays were performed with cells between 80% and 90% of confluence and with a cell viability above 90% (tested by trypan blue staining). 20000 cells per experimental condition were seeded in 24 well plates with 1 mL of medium for 24h. Culture medium was substituted for not supplemented DMEM and after a 24 hour incubation, compounds were added at 0.1 and 1 μM to assay wells. […] Cells were lysed in 100 μL of lysis buffer and 5 μg of total cell extract were used for the quantitative ELISA. Optical density was measured at 450 nm and background was subtracted.

HaCat cell line = assay: Hydrocortisone-induced DNA damage assay (HCS DNA Damage kit, phosphorylated H2AX); format: cell-based, human; conditions: compounds at 0.1 μM, 1 h before 10 μM hydrocortisone
Procedure: HaCat cell line, a spontaneously transformed aneuploid immortal keratinocyte cell line from adult human skin was used. Keratinocytes were cultured in DMEM medium supplemented with 10% FCS. […] Assays were performed with cells between 80% and 90% of confluence and with a cell viability above 90% (tested by trypan blue staining). 20000 cells per experimental condition were seeded in 24 well plates with 1 mL of medium for 24 h. Culture medium was substituted for not supplemented DMEM and after a 24 hour incubation, compounds were added at 0.1 μM to assay wells. […] Plate was incubated for 30 min before the DNA extraction. DNA damage was quantified using the HCS DNA Damage kit (ThermoFisher®). “The HCS DNA Damage kit simultaneously and quantitatively measures two important cell-health parameters: DNA damage and cytotoxicity. DNA damage is detected using an antibody against phosphorylated H2AX (Ser139) which is induced in response to double-strand break (DSB) formation”. Plate was read using Fluoroscan at 355-460 nm for Hoechst (cell number) and 485-538 nm for the secondary antibody (DNA damage). Background is subtracted and relativized with values obtained from Hoechst staining in order to obtain the value of DNA damage relative to the cell count of each well. Results were normalized using the basal values.

[4] = system: triple negative breast adenocarcinoma cell line MDA-MB-231; assay: Cytotoxicity by the MTT method; conditions: MDA-MB-231, 72 h, read-out: EC50 (cytotoxic effect)
Procedure: For that purpose the cytotoxic effects (EC50) of fucoxanthin (063-06691, Wako Chemicals) alone and combined with paclitaxel (T1912, Sigma-Aldrich) on the triple negative breast adenocarcinoma cell line MDA-MB-231 (ECACC: 92020424) were assessed.
In a first setup, MDA-MB-231 cells were seeded in 96 well plates with 100 μL of DMEM +10% FBS and incubated at 37° C., 5% CO2 and 90% humidity. After 24 hours, with a confluence and viability of between 80 and 90% as assessed by trypan blue test, cells were treated with serial dilutions (1:3) in DMEM+10% FBS of fucoxanthin solubilized in DMSO ranging from 100 μM to 15.2 nM.
In a second setup, MDA-MB-231 cells were seeded in 96 well plates with 100 μL of DMEM +10% FBS and incubated at 37° C., 5% CO2 and 90% humidity. After 24 hours, with a confluence and viability of between 80 and 90% as assessed by trypan blue test, cells were treated with serial dilutions (1:3) of paclitaxel in DMEM+10% FBS ranging from 1 μM to 0.15 nM or with both the same concentrations of paclitaxel plus a fixed subtoxic concentration of fucoxanthin (1 μM) solubilized in DMSO (100 μM).

| Molecule | antagonist effect on GR (in words) [1] | antagonist action on PR (in words) [2] | p53 expression in the presence of hydrocortisone (in words) [3] | protection of DNA from hydrocortisone-induced damage (in words) (HaCat cell line) | GR inhibition [1] | also measured |
| --- | --- | --- | --- | --- | --- | --- |
| CC1=C(/C=C/C(C)=C/C=C/C(C)=C/C=C/C=C(C)/C=C/C=C(C)/C=C/C2=C(C)C(=O)[C@@H](O)CC2(C)C)C(C)(C)C[C@H](O)C1=O [astaxanthin] | neither compounds exercise an antagonist effect on GR | – | – | – | – | – |
| CC1=C(/C=C/C(C)=C/C=C/C(C)=C/C=C/C=C(C)/C=C/C=C(C)/C=C/C2=C(C)CCCC2(C)C)C(C)(C)CCC1 [beta-carotene] | neither compounds exercise an antagonist effect on GR | – | – | – | – | – |
| C\C(C=C=C1C(C)(C)C[C@H](O)C[C@@]1(C)O)=C/C=C/C(C)=C/C=C/C=C(C)/C=C/C=C(\C)C(=O)/C=C1\C(C)(C)C[C@H](O)C[C@@]1(C)O [iso-fucoxanthinol] | – | – | – | – | – | maximum GR inhibition ([1]; at 10 mM (so in the source), against dexamethasone (FIG. 6)): 80% |
| CC(=C/C=C/C(C)=C/C=C/C=C(C)/C=C/C=C(\C)C=C=C1C(C)(C)C[C@H](O)C[C@@]1(C)O)/C=C/[C@@]12O[C@]1(C)C[C@@H](O)CC2(C)C [neoxanthin] | total antagonist | None of them showed an important antagonist action | increase p53 expression | capable of protecting DNA | above 85% | – |
| CC(=O)O[C@H]1C(=O)[C@@]2(C)[C@H]([C@H](OC(=O)c3ccccc3)[C@]3(O)C[C@H](OC(=O)[C@H](O)[C@@H](NC(=O)c4ccccc4)c4ccccc4)C(C)=C1C3(C)C)[C@]1(OC(C)=O)CO[C@@H]1C[C@@H]2O [paclitaxel, reference compound] | – | – | – | – | – | EC50 ([4]; Homo sapiens): 0.0044 µM |
| fucoxanthin | parcial antagonist | None of them showed an important antagonist action | increase p53 expression | capable of protecting DNA | 50% | EC50 ([4]; MTT, fucoxanthin alone): 7.46 µM; PR inhibition ([2]; at the highest concentration tested, against R5020): 30%; concentration from which compound acts as GR antagonist ([1]; against dexamethasone (FIG. 5)): 30 nM |
